Reference: paper PMC10115881, “Disrupting the α-synuclein-ESCRT interaction with a peptide inhibitor mitigates neurodegeneration in preclinical models of Parkinson’s disease” (Nature Communications, 2023)

Tests used:
A53T a-syn or EV rats [1] = assay: AAV-A53T a-syn rat model, high titer, TH+ neurons; assay type: in vivo; conditions: 6 weeks
Text: Third, we used a preclinical rat model of PD in which SN degeneration is induced by AAV vector-mediated expression of human mutant A53T a-syn[18],[45]–[48] (Fig. 5A). […] (Fig. 5B, C). […] Furthermore, overexpression of A53T a-syn was associated with a reduction in LAMP1 positive puncta in the SN which was restored with PDpep1.3 (Figs. 5E, S5E). […] Forelimb asymmetry in the cylinder test is a behavioral impairment associated with SN degeneration which models bradykinesia, the cardinal motor abnormality in PD[49].
Adult female Sprague-Dawley rats (250–280 g; Envigo) were pair-housed in cages with wood bedding and had access to food and water ad libitum. […]
Immunofluorescence staining for a-syn, pS129 a-syn, TH, and LAMP1 was performed by washing free-floating sections with PBS-T (0.1% Tween-20 or 0.2% Triton-X-100) three times for 10 min each at room temperature. […] Sections were then mounted onto glass slides and allowed to dry and then Dako fluorescence mounting medium (Agilent) was applied, followed by coverslips.
Confocal images of immunofluorescent staining of midbrain sections were processed using HALO software (Indica Labs), which is a well validated tool for automatic quantification of neurons in brain tissue sections[70]–[72]. […] Levels of total a-syn were assessed in this ROI by measuring the area and intensity of anti-a-syn staining. […]

A53T a-syn or EV rats [2] = assay: Striatal catecholamines by HPLC; assay type: in vivo, rat; conditions: A53T high titer
Description: Animals were secured in a stereotactic frame under isoflurane/oxygen anesthesia and ketoprofen (5 mg/kg) analgesia. The surgical site was shaved and sterilized with iodine/betadine prior to making a 2 cm incision along the midline. The scalp was exposed and a unilateral injection targeting the SN was performed at coordinates AP −5.2 mm, ML −2 mm and DV −7.5 mm with respect to the bregma as a point of reference. For each animal, a total volume of 2 μl of virus was injected at a rate of 0.5 μl/min using a microinjection pump and 10 μl Hamilton syringe with a 26-gauge needle. For A53T groups, 1 μl (low dose) or 1.34 μl (high dose) of AAV1/2-A53T a-syn (5.1 × 10^12 genomic particles/ml), 0.14 μl of AAV1/2-PDpep1.3-GFP or Scramble1.3-GFP (5.1 × 10^12 genomic particles/ml) and 0.86 μl or 0.52 μl of sterile PBS was injected; for EV groups, 1 μl (low dose) or 1.34 μl (high dose) of AAV1/2-EV (5.1 × 10^12 genomic particles/ml) replaced AAV1/2-A53T. […]
HPLC was performed as described. […] Catecholamines were determined from the supernatant. Values of catecholamines are expressed as ng analyte/mg total protein.

## DEEIERQLKALG [PDpep1.3]
A53T a-syn or EV rats [1]
  Effect on neurodegeneration in SN: neurodegeneration was mitigated
A53T a-syn or EV rats [2]
  Striatal dopamine, DOPAC and HVA: restored compared with the Scramble1.3 condition
